Test results reported in US20140080706A1, “METHOD OF PREPARING AN AQUEOUS TANK MIX COMPRISING A BASE” (BASF SE, priority 2011, published 2014).

Columns and labels:
pH of tank mix = assay type: physicochemical
Procedure: According to the invention, an aqueous tank mix which has a tank mix acidity of at least pH 5.0 was prepared. Preferably, the tank mix acidity corresponds to a pH of at least 6.0, better of at least 7.0, more preferably of at least 7.5, especially preferred of at least 8.0 and in particular of at least 8.5. The tank mix acidity may correspond to a pH of up to 13.0, preferably of up to 11.0 and in particular of up to 9.0. The tank mix acidity is usually determined as pH value at 20° C. without dilution of the tank mix.

[1] = Volatility: loss of dicamba from tank mix on petri dish; assay type: physicochemical; conditions: 70° C., 24 h
Procedure: The volatility was determined by analyzing the loss of material by HLPL at 70° C. after 24 h at atmospheric pressure. A sample of the aqueous tank mix (300 l/ha) was placed on the petri dish with a defined area (corresponding to a desired field application rate, such as 500 g/ha pesticide).
The application rate was 500 g/ha dicamba (free acid), 1000 g/ha potassium glyphosate, 300 g/ha Genamin® T050 (“Ad2”), 300 g/ha Preference® (“Ad3”) and optionally 250, 500 or 1000 g/ha K2CO3. Deionised water (hardness <1° dH) was used to prepare the samples. Dicamba BAPMA refers to the bis(3-aminopropyl)methylamine salt of dicamba.

[2] = tested on: Soya (glycine max) Variant Deltapine; assay: Biological evaluation of low phytotoxicity on glyphosate-resistant soya; assay type: in vivo; conditions: glyphosate tank mixes
Procedure: For the greenhouse tests, maize (cultivar Amadeo) and Chenopodium album was sown or potted in loamy sandy soil to a depth of 1-2 cm. When the plants had reached a growth height of 10 to 25 cm (around 10 to 21 days after sowing), the spray mixtures were applied to the plants in a spraying cabin.
The temperatures in the experimental period, which lasted for 3 to 4 weeks, were between 18-35° C. During this time, the experimental plants received optimum watering, with nutrients being supplied via the water used for watering.
The herbicidal activity was evaluated by awarding scores to the treated plants in comparison to the untreated control plants (Table 1 and 2). The evaluation scale ranges from 0% to 100% activity. 100% activity means the complete death at least of those parts of the plant that are above ground. Conversely, 0% activity means that there were no differences between treated and untreated plants.
The biological evaluation was made as described in Example 6. The tank mixes were applied at a application rate of 375 l/ha (125 or 250 g of glyphosate free acid/ha and 300 g of adjuvant/ha). The adjuvant Ad1 is an aqeuous solution of 200 g/l Genamin® T150 (a tallow fatty amine ethoxylate with 15 EO). The adjuvant Ad2 is Genamin® T050 (a tallow fatty amine ethoxylate with 5 EO).
Soya (glycine max) Variant Deltapine was genetically engineered to resist glyphosate.

[3] = typical value; cited from earlier work

CN(CCCN)CCCN.COc1c(Cl)ccc(Cl)c1C(=O)O [Dicamba BAPMA, bis(3-aminopropyl)methylamine salt of dicamba]
pH of tank mix (pH of tank mix; Table 6 tank mixes, deionised water (hardness <1° dH)): 6.3 | Loss of dicamba, Loss (wt %) ([1]; 500 g/ha dicamba, 1000 g/ha potassium glyphosate, 300 g/ha Ad2, 300 g/ha Ad3, deionised water): <1 wt %

COc1c(Cl)ccc(Cl)c1C(=O)O [Dicamba free acid, dicamba]
pH of tank mix (pH of tank mix; Table 5 tank mixes, 500 g/ha dicamba, 300 l/ha): 3.0 | Loss of dicamba, Loss (wt %) ([1]; atmospheric pressure, application rate 500 g/ha dicamba): 80 wt %

O=C([O-])[O-].[K+].[K+] [Example K2CO3, K2CO3]
phytotoxity effect on plants of addition of K2CO3 [2]: no phytotoxity effect

O=C(O)CNCP(=O)(O)O [glyphosate]
pKa for the amine [3]: 11.0 | pKa for the carboxylic acid [3]: 2.3 | pKa for the first phosphonic acid [3]: 0.8 | pKa for the second phosphonic acid [3]: 6.0
